Measured values reported in PubChem BioAssay AID463203 (Broad Institute, 2010).
Calls of active or inactive are those of the source.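 The calls were made as follows: active = more than half of replicate measurements showing over 20% loss of kinase signal relative to plate controls; inconclusive = some but at most half of replicates over 20% loss; inactive = no replicate over 20% signal loss.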

These compounds were tested against Glycogen synthase kinase-3 alpha (Homo sapiens) (UniProt P49840) (assay: concentration-response blocking of human GSK3A – biochemical, luminescence, cell-free homogeneous, retest, dose response (AID 463203)). Details: GSK-3 alpha enzyme, ADP-Glo luminescence, 60 min.
Chain of Glycogen synthase kinase-3 alpha (Homo sapiens) (P49840 whole entry, looked up): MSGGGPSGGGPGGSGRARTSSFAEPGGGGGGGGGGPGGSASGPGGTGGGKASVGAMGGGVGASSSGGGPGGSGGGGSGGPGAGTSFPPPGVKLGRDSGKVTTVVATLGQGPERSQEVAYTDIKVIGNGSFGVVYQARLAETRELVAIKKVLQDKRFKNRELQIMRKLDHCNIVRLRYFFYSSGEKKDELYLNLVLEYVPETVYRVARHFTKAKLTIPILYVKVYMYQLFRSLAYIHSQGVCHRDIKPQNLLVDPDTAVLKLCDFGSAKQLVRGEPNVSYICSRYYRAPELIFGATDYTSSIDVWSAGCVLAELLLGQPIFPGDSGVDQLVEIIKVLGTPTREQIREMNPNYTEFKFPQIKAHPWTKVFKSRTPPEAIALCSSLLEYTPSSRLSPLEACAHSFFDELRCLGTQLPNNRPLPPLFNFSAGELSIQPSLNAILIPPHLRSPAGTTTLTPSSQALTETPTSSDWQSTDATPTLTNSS

SMILES | AC50
Nc1nonc1-n1nnc(C(=O)N/N=C/c2ccc(F)cc2)c1-c1cccs1 | 1.05 µM
COc1ccc(-n2c(O)c(C=NCc3ccc4c(c3)OCO4)c(=O)[nH]c2=O)cc1 | > 30 µM (inactive)
Cc1c(C(=O)OC(C)C)[nH]c2c1C(=O)CCC2 | > 30 µM (inactive)
C/C(=N\NC(=O)c1nnn(-c2nonc2N)c1-c1cccs1)c1cccc(O)c1 | 1.42 µM
COc1cccc(-c2[nH]nc3c2C(c2ccc(C)o2)C(C#N)=C(N)O3)c1 (stereo not given) | > 30 µM (inactive)
COc1ccc(N=Cc2c(O)[nH]c3ccccc23)cc1 | 19.8 µM
O=c1[nH]nc(SCCS(=O)(=O)c2ccc(F)cc2)n1-c1ccccc1 | 22.9 µM
CN(C)c1nc2sc3c(c2c(=O)n1C)CC(C)(C)OC3 | > 30 µM (inactive)
CN1CCN(c2ccccc2NC(=O)c2ccc(-c3ccccc3[N+](=O)[O-])o2)CC1 | 4.6 µM
O=C(NCC1CCCO1)c1ccc(NC(=O)c2cccc([N+](=O)[O-])c2)cc1 (stereo not given) | > 30 µM (inactive)
CC(=O)Nc1cccc(-c2cnc(N)c(C(=O)c3cccnc3)n2)c1 | 0.105 µM
Cc1ccnc(NC(=O)CCC(=O)N(CC(=O)NCc2ccccc2)Cc2ccc(F)cc2)c1 | 25 µM
NC(=O)c1ccsc1NC(=O)COC(=O)Cc1ccsc1 | 28.6 µM
O=C1Nc2ccccc2C1(O)c1ccccc1O (stereo not given) | > 30 µM (inactive)
CCOc1cc(/C=C2\SC(N)=NC2=O)ccc1O | 22.9 µM
Cn1c(=O)c2[nH]c(NCC3CCCO3)nc2n(-c2ccccc2)c1=O (stereo not given) | 11 µM
O=C(COC(=O)c1ccc(F)cc1F)Nc1ccc(Cl)cn1 | > 30 µM (inactive)
CCc1c(C)c(C#N)c2nc3ccccc3n2c1NCC1CCCO1 (stereo not given) | 12.6 µM
Cc1onc(-c2ccccc2Cl)c1C(=O)Nc1cccc(-c2cn3cccnc3n2)c1 | > 30 µM (inactive)
C/C(CC(=O)N(C(C)C)C(C)C)=N\NC(=O)COc1ccc(Br)cc1Br | > 30 µM (inactive)
COc1cc(/C=N/NC(=O)c2cccnc2)cc(Br)c1O | > 30 µM (inactive)
COc1cccc(Nc2nc(N)c([N+](=O)[O-])c(NCc3ccccc3)n2)c1 | 13.4 µM
CCOC(=O)c1[nH]c2c(c1-c1ccccc1)C(=O)CC(c1ccc(OCC)cc1)C2 (stereo not given) | > 30 µM (inactive)
COc1cc(/C=N/Nc2nc(=O)[nH]nc2C)cc([N+](=O)[O-])c1O | 22.1 µM
CCOC(=O)c1c(NC(=O)CN2C(=O)NC3(CCCCC3C)C2=O)sc(C)c1C (stereo not given) | > 30 µM (inactive)

SMILES | AC50
COc1ccc2[nH]c(C(=O)O)c(NS(=O)(=O)c3ccc(OC)c(OC)c3)c2c1 | 6.63 µM
Cc1ccc(S(=O)(=O)Nc2ccc(O)c3cccnc23)cc1 | > 30 µM (inactive)
Cc1ccc2c(c1)COc1c3ccc(C(=O)N4CCCCC4)cc3nn1-2 | > 30 µM (inactive)
COc1ccc(CCNC(=O)CSc2nc3[nH]ncc3c(=O)n2-c2cccc(C(F)(F)F)c2)cc1OC | > 30 µM (inactive)
COc1ccc2nc(NC(=O)CCc3cc(OC)c(OC)c(OC)c3)sc2c1 | 7.29 µM
CCOC(=O)c1[nH]c2c(c1-c1ccccc1)C(=O)CC(c1ccc(Cl)cc1)C2 (stereo not given) | > 30 µM (inactive)
C=CCNc1nc(N)c([N+](=O)[O-])c(N2CCCCCC2)n1 | 29.1 µM
Cc1cccc(Nc2nc(C)cc(C)n2)c1 | > 30 µM (inactive)
CCc1ccc(NC(=S)NC(=O)CC(C)C)cc1 | > 30 µM (inactive)
COc1ccc(/C=N/NC(=O)c2nnn(-c3nonc3N)c2-c2cccs2)c(OC)c1 | 1.04 µM
FC(F)(F)COc1ccc(-c2nnc(SCc3c(Cl)cccc3Cl)o2)cn1 | > 30 µM (inactive)
O=[N+]([O-])c1ccc(NCCCN2CCOCC2)c([N+](=O)[O-])c1 | > 30 µM (inactive)
CCc1nnc(NC(=O)CCc2nc(C3=CCN(C)CC3)no2)s1 | > 30 µM (inactive)
CC(=O)C1C(c2ccccc2)c2c(n[nH]c2C)CC1(C)O (stereo not given) | > 30 µM (inactive)
Cc1ccc(-c2cc(-c3n[nH]c(=S)o3)c3ccccc3n2)cc1 | 27.7 µM
CCOC(=O)Nc1nc(C)c(C(=O)c2ccc(Cl)cc2)s1 | > 30 µM (inactive)
C/C(=N\NC(=O)c1nnn(-c2nonc2N)c1-c1cccs1)c1ccncc1 | 1.02 µM
CCCCn1c(O)c(C(C)=NCCCn2ccnc2)c(=O)[nH]c1=O | 11.1 µM
COC(=O)c1ccc2c(=O)[nH]c(COC(=O)c3cccc(S(=O)(=O)N4CCOCC4)c3)nc2c1 | 6.88 µM
Cc1ccc(S(=O)(=O)c2c(C(=O)c3ccccc3)cnc3cc4c(cc23)OCCO4)cc1 | > 30 µM (inactive)
COc1ccc(-n2c(SCC(N)=O)nnc2-c2ccco2)cc1 | > 30 µM (inactive)
O=C1NC(=Nc2ccccc2Cl)S/C1=C\c1cccc([N+](=O)[O-])c1 | > 30 µM (inactive)
CCCCc1ccc(NC(=O)N[C@H](C(=O)O)C(C)C)cc1 | > 30 µM (inactive)
CC1(C)CC(=O)C(C2c3ccccc3S(=O)(=O)c3ccccc32)C(=O)C1 | > 30 µM (inactive)
CCn1c2ccccc2c2nnc(SCC(N)=O)nc21 | 15.4 µM

SMILES | AC50
Cc1oc2ccc(O)c(CN(C)C)c2c1C(=O)c1ccccc1 | > 30 µM (inactive)
CC(=O)Nc1ccc(NC(=O)CSc2nnc(-c3ccc4c(c3)OCO4)o2)cc1 | 2.61 µM
CCN=C(NC#N)SCc1c(F)cccc1Cl | > 30 µM (inactive)
Cc1noc(C)c1COc1cccc(C(=O)OC(C)C(=O)Nc2c(C)n(C)n(-c3ccccc3)c2=O)c1 (stereo not given) | > 30 µM (inactive)
Cc1cc(C)c(S(=O)(=O)Nc2ccnc(-c3cccnc3)n2)c(C)c1 | 5.52 µM
COCCCNC(=O)C(=O)NC1CCCCCC1 | > 30 µM (inactive)
COc1ccc(-c2noc(CSc3nc(N)cc(=O)[nH]3)n2)cc1 | > 30 µM (inactive)
Cc1cc(OC(=O)c2c(C)cc(O)cc2O)cc(O)c1C(=O)O | 27.8 µM
COc1ccc(CCn2cnc(=O)c(C#N)c2C)cc1OC | > 30 µM (inactive)
CN1CCc2nc3sc(C(=O)NC4CC4)c(N)c3cc2C1 | > 30 µM (inactive)
CCc1cc(C(=O)OC)c(NC(=O)CN2CCN(C(=O)c3ccco3)CC2)s1 | > 30 µM (inactive)
Nc1c(C(=O)O)ccc2c1C(=O)c1ccccc1C2=O | 7.87 µM
COc1cc2c(ccc3cc(OC)c(OC)c(O)c32)cc1O | 20.8 µM
CN(Cc1nc2c(s1)CCCC2)C(=O)CCc1nnc(-c2ccccc2)o1 | > 30 µM (inactive)
COc1cc(/C=C/c2nc(N)nc(-c3ccccc3O)n2)cc(OC)c1OC | > 30 µM (inactive)
Nc1c(C(=O)NCc2ccco2)c2nc3ccccc3nc2n1CCN1CCOCC1 | > 30 µM (inactive)
Cc1sc2ncnc(NCc3ccco3)c2c1C | > 30 µM (inactive)
CC(C)Cn1nc(NC(=O)C2CCCO2)c2cc3ccccc3nc21 (stereo not given) | > 30 µM (inactive)
CS(=O)(=O)Nc1ccc(-c2cc(/C=C3\SC(N)=NC3=O)c[nH]c2=O)cc1 | 7.53 µM
CN(c1nc2nonc2nc1NC1CC1)C1CCOC1 (stereo not given) | > 30 µM (inactive)
O=[N+]([O-])c1ccc(Nc2nc(Cl)nc(NCCO)n2)cc1 | > 30 µM (inactive)
CC(=O)Nc1cccc(-c2csc(Nc3ccccn3)n2)c1 | > 30 µM (inactive)
Fc1cccc(Nc2nc(-c3ccncc3)nc3ccccc23)c1 | > 30 µM (inactive)
Cc1nc2ncnn2c(C)c1Cc1c(Cl)cccc1Cl | > 30 µM (inactive)
COc1ccc(-c2cc(=O)c3ccccc3s2)cc1 | > 30 µM (inactive)
